Patent publication US6335021B1, “Composition for controlling mood disorders in healthy individuals” (Sigma-Tau HealthScience S.p.A., priority 1997, dated 2002)

Test system: subjects suffering from dysthymic disorders
Experiment: Clinical trial of acetyl L-carnitine in patients with mood disorders classifiable as dysthymia (rating scales, alcohol intake, libido, safety)
Assay type: in vivo, human
Conditions: for Hamilton Depression Rating Scale (HDRS): basal 13.9 ± 5.3; for Hamilton Anxiety Rating Scale (HARS): basal 18.6 ± 3.8; for Global Functional (or Social Adaptation) Rating (GFR): basal 63.4 ± 6.6; for alcohol-free days: baseline 6±2
From the text: The selection of the patients for this trial consisted in a selection by exclusion, in which the medical history criterion was of paramount importance, with exclusion of all patients presenting episodes of major depression and cyclothymic manifestations classifiable as such on the basis of the DMS criteria.
Subjects were therefore recruited whose mood disorders had been dominated by dysphoric manifestations for at least 4 years, classifiable as dysthymia (DMS IV) and a depressive, irritable, cyclothymic personality or temperament on the basis of DMS IV and AXIS II. A total of 20 patients were selected, 12 males and 8 females, matching up to the above-mentioned criteria, and with a mean age of 26±2 years. Six patients (males) also complained of diminished libido and episodes of impotence, while the 8 female patients complained of loss of libido and anorexia. Eight patients (4 males) reported an increased intake of alcoholic beverages, without clinical complications, in the previous 8 months (mean intake 142±15 g/day) and 6 patients (1 male) reported bulimic episodes resulting in a mean weight gain of 2.1±0.5 kg over the previous 6 months.
Each patient was recruited into the study after 3 repeated visits, at monthly intervals, for the purposes of ruling out other concomitant pathologies or disorders according to DMS IV and AXIS II involving definite abuse of psychotropic substances. The objective neurological examination, current laboratory tests (SMA plus), ECG. BP and chest X-rays were all within normal limits.
None of the patients had been treated with SSRI or tricyclic antidepressants during the previous year. In the course of the month preceding the treatment with acetyl L-carnitine all treatments consisting in administration of benzodiazepines during the daytime were discontinued and only the administration of Lorazepam (2.5 mg) at 9 p.m. was allowed for all patients.
Each patient was administered acetyl L-carnitine 1 g per os twice daily (at breakfast- and lunch-time) for two months.
During the clinical interviews, at entry into the study, on day 45 of administration of acetyl L-carnitine and on day 90 (one month after the end of the treatment), patients were administered the following standardized rating scales: Hamilton Depression Rating Scale (HDRS), Hamilton Anxiety Rating Scale (HARS), Global Functional (or Social Adaptation) Rating (GFR).
For the recording of alcohol intake, a self-administered scale was used to record the alcohol-free days as a percentage of the total and the number of daily alcohol intakes, considering the intake of 10 grams as a single intake, in the month preceding treatment, during the treatment months and in the month following acetyl L-carnitine treatment.

[1] = Day 45 of administration, 1 g per os twice daily
[2] = Day 90 (one month after the end of treatment)

## CC(=O)O[C@H](CC(=O)[O-])C[N+](C)(C)C [acetyl L-carnitine]
Day 45 of administration, 1 g per os twice daily, 20 patients
  Hamilton Depression Rating Scale (HDRS): 9.1 ± 4.8
[1]
  Hamilton Anxiety Rating Scale (HARS): 12.8 ± 4.4
  Global Functional (or Social Adaptation) Rating (GFR): 75.3 ± 7.9
Day 90 (one month after the end of the two-month treatment)
  Hamilton Depression Rating Scale (HDRS): 12.8 ± 5.4
[2]
  Hamilton Anxiety Rating Scale (HARS): 16.9 ± 5.0
  Global Functional (or Social Adaptation) Rating (GFR): 67.7 ± 6.8
All male patients, 15 days after the start of treatment
  symptoms of impotence and diminished libido: disappearance of symptoms of impotence and diminished libido
During the two months of treatment, on average, self-administered scale
  alcohol-free days: 16±3
End of treatment
  changes in laboratory tests, BP and ECG as compared to pre-treatment conditions: no significant changes
End of two-month treatment, 1 g per os twice daily
  laboratory tests performed at the end of treatment: normal values
In the month after treatment
  alcohol-free days: 8±2
Subjects suffering from dysthymic disorders, conclusion of the clinical trial
  expression of the depressive behavioural component: significantly reduces
Under treatment, as against 7.8±1.2
  mean number of alcohol intakes (10 grams = a single intake): 6.1±2.1
